Results on two compounds are retold here after paper PMC9883252 (iScience, 2023).

Assay [1] relates to P. falciparum gametocytes (NF54 and 3601E1). The experiment in a line: Activity against synchronous gametocytes. Type of assay: cell-based, Plasmodium falciparum. Conditions: stage V.
In assay [2] the test system is P. falciparum NF54 strain. The experiment in a line: Inhibition activity in the asexual blood stages. The class given is cell-based. Conditions: Plasmodium falciparum, NF54, 72 h, read-out: Pf IC50 (mean).

As for `COc1ccc(C[C@H](N)C(=O)N[C@H]2[C@@H](O)[C@H](n3cnc4c(N(C)C)ncnc43)O[C@@H]2CO)cc1` [Puromycin, puromycin], the “killing of late stage gametocytes” value in assay [1] was “does not reach complete killing”.

The IC50 is the concentration needed to halve the response being measured. Consider `COc1ccc2cc1Oc1ccc(cc1)C[C@@H]1NCCc3cc(OC)c4c(c31)Oc1cc3c(cc1O4)CCN(C)[C@H]3C2` [trilobine], for which the IC50 in assay [2] came out at 410 nM.
